The nature of data set [1]: Determination of stability against mouse liver microsomes. It is filed as in vitro ADME. The note with it: mouse liver microsomes 1 mg protein/mL, 2 mM NADPH, pH 7.4, 37 C; read-out: Stability against mouse liver microsome NADPH+ T1/2. As to the method:
The enzyme reaction was quenched with three volumes of acetonitrile, and the reaction mixture was centrifuged at 1,500 rpm for ten minutes to provide a supernatant as a sample to be measured. Stability against mouse liver microsomes was measured using HPLC/MS to determine the compounds in the sample.
For orientation: Microsomes from liver hold many membrane-bound enzymes, among them those of drug oxidation.

Data set [2] can be described thus: Determination of stability against human liver microsomes. The note with it: human liver microsomes 1 mg protein/mL, 2 mM NADPH, pH 7.4, 37 C; read-out: Stability against human liver microsome NADPH+ T1/2. It is filed as in vitro ADME. The procedure:
The enzyme reaction was quenched with three volumes of acetonitrile, and the reaction mixture was centrifuged at 1,500 rpm for ten minutes to provide a supernatant as a sample to be measured. Stability against human liver microsomes was measured using HPLC/MS to determine the compounds in the sample.

For data set [3], the system named is Human colon cancer cell line HT-29. Kind of data set: Determination of the activity of inhibiting cell proliferation (Cell Counting Kit-8). It is filed as cell-based. The note with it: HT-29, 96 h, HT29, 2,000 cells/well, incubated four days, read-out: Cell proliferation inhibitory activity (HT29) IC50. The procedure: Human colon cancer cell line HT-29, obtained from American Type Culture Collection (VA, USA), and human non-small cell lung cancer cell line QG56, obtained from Immuno-Biological Laboratories Co., Ltd., were plated at 2,000 cells/well in a 96-well culture plate, and incubated for four days after addition of a MEK inhibitor of a given concentration.
For orientation: Tetrazolium assays rely on reduction of a dye to a coloured formazan, in cell work by metabolically active cells.

The nature of data set [4]: Determination of water solubility (equilibrium stirring method). The format is physicochemical. To be noted: for solubility at 2 h: aqueous buffer, thermodynamic from solid, read-out: Water solubility (LySA PH 6.5). As to the method: The vessels were sealed, and the contents were sonicated at room temperature (20° C.) for ten minutes, and then stirred with a stirrer for two hours. After reaching solution equilibrium, the solution was separated with a membrane filter, and the solute concentration was determined using HPLC.

The target in data set [5] is MEK (Homo sapiens, UniProt Q02750). As to the kind of experiment: Determination of MEK inhibitory activities (Raf-1 kinase cascade assay, MBP phosphorylation, 33P-ATP).
MEK, sequence (Q02750 whole entry): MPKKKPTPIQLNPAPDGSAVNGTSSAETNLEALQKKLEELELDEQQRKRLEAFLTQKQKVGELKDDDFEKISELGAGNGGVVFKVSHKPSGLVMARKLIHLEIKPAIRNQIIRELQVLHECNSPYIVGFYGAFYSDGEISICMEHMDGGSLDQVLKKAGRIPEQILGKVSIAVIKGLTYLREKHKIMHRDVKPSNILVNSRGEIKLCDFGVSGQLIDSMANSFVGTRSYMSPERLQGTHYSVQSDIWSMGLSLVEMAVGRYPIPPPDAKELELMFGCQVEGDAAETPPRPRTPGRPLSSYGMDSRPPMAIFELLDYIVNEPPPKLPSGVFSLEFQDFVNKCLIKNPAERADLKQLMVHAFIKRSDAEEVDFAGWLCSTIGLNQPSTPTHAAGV
Text: The radioisotope used was [γ^33P]-ATP (Amersham Biosciences, K.K.).
The mark [6] stands for this setting: 50 mM phosphate buffer pH 6.5, room temperature (20 C).

Experimental findings from patent US8084645B2, “4-phenylamino-benzaldoxime derivatives and uses thereof as mitogen-activated protein kinase kinase (MEK) inhibitors” (Chugai Seiyaku Kabushiki Kaisha, priority 2003, dated 2011) are described below.

Values after ≈ are worked out from the molar mass of the structure shown. Where two headings read alike, the source gives them in different places. Some results are limits rather than exact numbers.

For orientation: solubility means the dissolved amount per volume that the medium holds.

As to `O=C(NOCCO)c1cc(/C=N/OCC(O)CO)c(F)c(F)c1Nc1ccc(I)cc1F` (racemic) [Compound 7, (E)-dl-5-[(2,3-Dihydroxy-propoxyimino)-methyl]-3,4-difluoro-2-(2-fluoro-4-iodo-phenylamino)-N-(2-hydroxy-ethoxy)-benzamide], the half-life in data set [1] is above 6 h; in data set [2], 1.51 h. Besides, the IC50 in data set [3] worked out at 37 nM; in data set [5], 33 nM. Also, the solubility at 2 h in data set [4] (phosphate buffer, 20 °C, at pH 6.67) turned out to be 162 µM (≈ 92.2 µg/mL).
Regarding `C#Cc1ccc(Nc2c(C(=O)NOCCO)cc(/C=N/OCC(O)CO)c(F)c2F)c(F)c1` (racemic) [Compound 8, (E)-dl-5-[(2,3-Dihydroxy-propoxyimino)-methyl]-2-(4-ethynyl-2-fluoro-phenylamino)-3,4-difluoro-N-(2-hydroxy-ethoxy)-benzamide], the half-life in data set [1] is above 6 h; in data set [2], 1.24 h. Also, the IC50 in data set [3] was 185 nM; in data set [5], 150 nM. Besides, in data set [4] (phosphate buffer, 20 °C, at pH 6.06), the solubility at 2 h was 1470 µM (≈ 687 µg/mL).
Regarding `O=C(NOCC(O)CO)c1cc(/C=N\OCCO)c(F)c(F)c1Nc1ccc(I)cc1F` (racemic) [Compound 58, dl-(Z)—N-(2,3-dihydroxy-propoxy)-3,4-difluoro-2-(2-fluoro-4-iodo-phenylamino)-5-[(2-hydroxy-ethoxyimino)-methyl]-benzamide], the half-life stood at 0.79 h in data set [1] and 0.91 h in data set [2]. Also, the IC50 in data set [3] is 37 nM; in data set [5], 27 nM. Also, the solubility at 2 h in data set [4] (setting [6]) came out at 127 µM (≈ 72.3 µg/mL).
For `O=C(NOCCO)c1cc(/C=N/OCCO)c(F)c(F)c1Nc1ccc(I)cc1F` [Compound 1, (E)-3,4-difluoro-2-(2-fluoro-4-iodo-phenylamino)-N-(2-hydroxy-ethoxy)-5-[(2-hydroxy-ethoxyimino)-methyl]-benzamide], the figures for the half-life in data set [1] and in data set [2] were 3.94 h and 1.08 h, respectively. Besides, the IC50 in data set [3] was found to be 80 nM; in data set [5], 100 nM. Besides, the “Water solubility (LySA PH 6.5)” value in data set [4] (setting [6]) was found to be 8.3 µM.
Taken in the same sequence, the figures for `C#Cc1ccc(Nc2c(C(=O)NOCCO)cc(/C=N/OCCO)c(F)c2F)c(F)c1` [Compound 2, (E)-2-(4-ethynyl-2-fluoro-phenylamino)-3,4-difluoro-N-(2-hydroxy-ethoxy)-5-[(2-hydroxy-ethoxyimino)-methyl]-benzamide] were 2.25 h, 1.34 h, 150 nM, 240 nM and 415 µM.
Consider `O=C(NOCCO)c1cc(/C=N/O)c(F)c(F)c1Nc1ccc(I)cc1F` [Compound 3, (E)-3,4-difluoro-2-(2-fluoro-4-iodo-phenylamino)-N-(2-hydroxy-ethoxy)-5-(hydroxyiminomethyl)-benzamide], for which the half-life was 0.97 h in data set [1] and 1.55 h in data set [2]. Moreover, the IC50 came out at 65 nM in data set [3] and 78 nM in data set [5]. Moreover, the solubility at 2 h in data set [4] (setting [6]) turned out to be 6.4 µM (≈ 3.17 µg/mL).
Turning to `O=C(NOCCO)c1cc(/C=N/OCCCO)c(F)c(F)c1Nc1ccc(I)cc1F` [Compound 4, (E)-3,4-Difluoro-2-(2-fluoro-4-iodo-phenylamino)-N-(2-hydroxy-ethoxy)-5-[(3-hydroxy-propoxyimino)-methyl]-benzamide], the half-life in data set [1] and in data set [2] was above 6 h throughout. In addition, the figures for the IC50 in data set [3] and in data set [5] were 45 nM and 69 nM, respectively. Moreover, the solubility at 2 h in data set [4] (phosphate buffer, 20 °C, at pH 6.08) was found to be 3.8 µM (≈ 2.1 µg/mL).
Turning to `C#Cc1ccc(Nc2c(C(=O)NOCCO)cc(/C=N/OCCCO)c(F)c2F)c(F)c1` [Compound 5, (E)-2-(4-Ethynyl-2-fluoro-phenylamino)-3,4-Difluoro-N-(2-hydroxy-ethoxy)-5-[(3-hydroxy-propoxyimino)-methyl]-benzamide], the half-life in data set [1] is above 6 h; in data set [2], 4.12 h. The values for the IC50 in data set [3] and in data set [5] were 170 nM and 150 nM, respectively. In data set [4] (phosphate buffer, 20 °C, at pH 6.87), the solubility at 2 h came to 426 µM (≈ 192 µg/mL).
For the compound `CC(O)CO/N=C/c1cc(C(=O)NOCCO)c(Nc2ccc(I)cc2F)c(F)c1F` (stereo not shown) [Compound 15, (E)-3,4-difluoro-2-(2-fluoro-4-iodo-phenylamino)-N-(2-hydroxy-ethoxy)-5-[(2-hydroxy-propoxyimino)-methyl]-benzamide], the half-life in data set [1] is 0.978 h; in data set [2], 2.67 h. For the same compound, the IC50 in data set [3] was 137 nM; in data set [5], 110 nM. For the same compound, the solubility at 2 h in data set [4] (setting [6]) is 8 µM (≈ 4.43 µg/mL).
The matching figures for `CN(C)CCO/N=C/c1cc(C(=O)NOCCO)c(Nc2ccc(I)cc2F)c(F)c1F` [Compound 16, (E)-5-[(2-dimethylamino-ethoxyimino)-methyl]-3,4-difluoro-2-(2-fluoro-4-iodo-phenylamino)-N-(2-hydroxy-ethoxy)-benzamide]: 3.08 h, above 6 h, 210 nM, 244 nM and 2400 µM (≈ 1360 µg/mL).
Taken in the same sequence, the figures for `O=C(NOCCO)c1cc(/C=N/OCCN2CCOCC2)c(F)c(F)c1Nc1ccc(I)cc1F` [Compound 18, (E)-3,4-difluoro-2-(2-fluoro-4-iodo-phenylamino)-N-(2-hydroxy-ethoxy)-5-[(2-morpholin-4-yl-ethoxyimino)-methyl]-benzamide] were above 6 h, above 6 h, 140 nM, 262 nM and 164 µM (≈ 99.8 µg/mL).
In the case of `O=C(NOCCO)c1cc(/C=N/OCCN2CCC(O)CC2)c(F)c(F)c1Nc1ccc(I)cc1F` [Compound 19, (E)-3,4-difluoro-2-(2-fluoro-4-iodo-phenylamino)-N-(2-hydroxy-ethoxy)-5-{[2-(4-hydroxy-piperidin-1-yl)-ethoxyimino]-methyl}-benzamide], the half-life in data set [1] and in data set [2] was above 6 h in each case. Moreover, the IC50 was 750 nM in data set [3] and 693 nM in data set [5]. Besides, in data set [4] (setting [6]), the solubility at 2 h was 2910 µM (≈ 1810 µg/mL).
In the case of `O=C(NOCCO)c1cc(/C=N/OCCN2CCC[C@H]2CO)c(F)c(F)c1Nc1ccc(I)cc1F` [Compound 20, (E)-3,4-difluoro-2-(2-fluoro-4-iodo-phenylamino)-N-(2-hydroxy-ethoxy)-5-{[2-((S)-hydroxymethyl-pyrrolidin-1-yl)-ethoxyimino]-methyl}-benzamide], the half-life in data set [1] and in data set [2] was above 6 h throughout. In addition, the IC50 in data set [3] stood at 643 nM; in data set [5], 696 nM. The solubility at 2 h in data set [4] (setting [6]) was found to be 1830 µM (≈ 1140 µg/mL).
Regarding `O=C(NOCCO)c1cc(/C=N/OCCN2CCCC2)c(F)c(F)c1Nc1ccc(I)cc1F` [Compound 21, (E)-3,4-difluoro-2-(2-fluoro-4-iodo-phenylamino)-N-(2-hydroxy-ethoxy)-5-[(2-pyrrolidin-1-yl-ethoxyimino)-methyl]-benzamide], the half-life in data set [1] and in data set [2] was above 6 h throughout. For the same compound, the IC50 stood at 651 nM in data set [3] and 802 nM in data set [5]. Moreover, the solubility at 2 h in data set [4] (setting [6]) stood at 1480 µM (≈ 879 µg/mL).
On to `NCCO/N=C/c1cc(C(=O)NOCCO)c(Nc2ccc(I)cc2F)c(F)c1F` [Compound 22, (E)-5-[(2-amino-ethoxyimino)-methyl]-3,4-difluoro-2-(2-fluoro-4-iodo-phenylamino)-N-(2-hydroxy-ethoxy)-benzamide], for which the half-life in data set [1] and in data set [2] was above 6 h each time. The IC50 turned out to be 36 nM in data set [3] and 75 nM in data set [5]. For the same compound, in data set [4] (setting [6]), the solubility at 2 h is 146 µM (≈ 78.6 µg/mL).
Take `CC(=O)NCCO/N=C/c1cc(C(=O)NOCCO)c(Nc2ccc(I)cc2F)c(F)c1F` [Compound 24, (E)-5-[(2-acetylamino-ethoxyimino)-methyl]-3,4-difluoro-2-(2-fluoro-4-iodo-phenylamino)-N-(2-hydroxy-ethoxy)-benzamide]: the half-life in data set [1] and in data set [2] was above 6 h in each case. Moreover, the IC50 was determined as 86 nM in data set [3] and 48 nM in data set [5]. Further, the “Water solubility (LySA PH 6.5)” value in data set [4] (setting [6]) worked out at 16 µM.
In the case of `CC(=O)N(C)CCO/N=C/c1cc(C(=O)NOCCO)c(Nc2ccc(I)cc2F)c(F)c1F` [Compound 25, (E)-5-{[2-(acetyl-methyl-amino)-ethoxyimino]-methyl}-3,4-difluoro-2-(2-fluoro-4-iodo-phenylamino)-N-(2-hydroxyethoxy)-benzamide], the half-life in data set [1] is 3.3 h; in data set [2], 0.813 h. Moreover, the IC50 was determined as 44 nM in data set [3] and 30 nM in data set [5]. The solubility at 2 h in data set [4] (setting [6]) came to 54 µM (≈ 32.1 µg/mL).
